In article PMC9368981, “The γ-Core Motif Peptides of AMPs from Grasses Display Inhibitory Activity against Human and Plant Pathogens” (International Journal of Molecular Sciences, 2022):
Where a SMILES comes first, the peptide text is derived from it. Where no end group is shown, it is not given here.

How the values were obtained:
[1] = test system: Pseudomonas savastanoi pv. savastanoi VKM B-1546; type: cell-based; details: 300 µM peptide; 30 °C, 24 h, absorbance 594 nm; vs control without peptide; triplicate, mean
Protocol: (§1) The antimicrobial activity of synthetic peptides was tested against a panel of human and plant pathogens. Among them were the yeasts Candida albicans VKM Y-2994 and Cryptococcus neoformans VKM Y-2755, the plant pathogenic bacteria Clavibacter michiganensis subsp. michiganensis VKM Ac-1403, Pseudomonas savastanoi pv. savastanoi VKM B-1546 and Pectobacterium carotovorum subsp. carotovorum VKM B-1247, and four Fusarium species (F. oxysporum VKM F-137, F. culmorum VKM F-2303, F. solani VKM F-142 and F. verticillioides VKM F-670), which cause diseases in plants and humans. The antimicrobial activity was first measured at the peptide concentration of 300 µM (Figure 3).
(§2) The antimicrobial activity of synthetic peptides was tested against the yeasts Candida albicans VKM Y-2994 and Cryptococcus neoformans VKM Y-2755, the bacteria Pseudomonas savastanoi pv. savastanoi VKM B-1546, Pectobacterium carotovorum subsp. carotovorum VKM B-1247 and Clavibacter michiganensis subsp. michiganensis VKM Ac-1403, and four Fusarium species: F. culmorum VKM F-2303, F. oxysporum VKM F-137, F. solani VKM F-142 and F. verticillioides VKM F-670. All cultures were obtained from the All-Russian Collection of Microorganisms (VKM). The details of the production and storage of cultures of microorganisms used in this study are described at the VKM Home page. Antimicrobial assays were accomplished according to the procedure described earlier. In short, yeasts were grown on the YPD-P medium and the bacteria P. carotovorum and Cl. michiganensis were cultured on a modified YPD-P medium. The Fusarium fungi were grown on potato dextrose agar at 25 °C for 7–8 days, and spores were washed off from the surface of the mycelia with sterile, distilled water. The antimicrobial activity of the peptides was measured in immunoassay microtiter plates according to the protocol of Broekaert et al.. With yeasts and bacteria, each well contained 10 µL of the tested peptide solution (final concentrations of 10–300 µM) in water, 80 µL of the medium and 10 µL of the microbial suspension. The plates were incubated at 30 °C for 24 h, and the absorbance of the suspension was measured on an Efos 9305 spectrophotometer (Sapphire, Moscow, Russia) at 594 nm. For Fusarium species, the wells of a microtiter plate were filled with 90 µL of the fungal spore suspension in half-strength potato dextrose broth at a concentration of 2000–3000 spores in 100 µL and 10 µL of aqueous solutions of peptides at final concentrations of 10–300 µM. After 38 h of incubation, the absorbance was recorded at 595 nm on a FilterMax F5 Multi-Mode Microplate Reader (Molecular Devices, San Jose, CA, USA). Antimicrobial activity is expressed in IC50 values, which show the concentration necessary for 50% inhibition of the pathogen growth; this was determined from a graph showing the activity dependence on peptide concentration.
(§3) For each pathogen, experiments on the peptide antimicrobial activity evaluation were carried out in triplicate per treatment. Mean values, standard deviations (SD), and the significance of differences (p ≤ 0.05) of the means between treatments and controls (t-test for independent variables) were determined using STATISTICA v. 6.1 software (StatSoft Inc., Tulsa, OK, USA).

[2] = test system: Cr. neoformans cells; assay: Propidium iodide staining, fluorescence microscopy; type: cell-based, Cryptococcus neoformans; details: peptide 300 µM, 30 °C, 1 h, 0.03 mM PI 15 min
Protocol: (§4) Their ability to disturb the integrity of pathogen membranes was assayed by staining with propidium iodide of C. albicans and Cr. neoformans cells preliminarily incubated with the peptides. The results were visualized by fluorescent microscopy and quantified by flow cytometry (Figure 5, Figure 6 and Figure 7).
(§5) Staining of yeast cells with propidium iodide in the presence of the γ-core peptides was carried out according to the protocol described earlier. C. albicans or Cr. neoformans cells (24 h culture in YPD-P at a cell concentration of 2 × 10^8/mL) were incubated with the peptide at a concentration of 300 µM at 30 °C for 1 h. After incubation, 1 mL of the cells was stained with 0.03 mM propidium iodide (Sigma, St. Louis, MO, USA). The staining proceeded for 15 min at 30 °C. The fluorescence was recorded on an AXIO Imager A1 fluorescence microscope (ZEISS, Göttingen, Germany) using a Zeiss filter set 56 HE.

[3] = test system: C. albicans cells; assay: Propidium iodide staining, fluorescence microscopy; type: cell-based, Candida albicans; details: peptide 300 µM, 30 °C, 1 h, 0.03 mM PI 15 min
Protocol: as §4, §5

[4] = test system: Candida albicans VKM Y-2994; type: cell-based; details: for Inhibition of C. albicans at the highest tested concentration: inhibition curves (Figure 4), highest tested concentration (300 µM)
Protocol: as §1, §2, §3

[5] = test system: Pectobacterium carotovorum subsp. carotovorum VKM B-1247; details: 30 °C, 24 h, absorbance 594 nm
Protocol: All cultures were obtained from the All-Russian Collection of Microorganisms (VKM).
Mean values, standard deviations (SD), and the significance of differences (p ≤ 0.05) of the means between treatments and controls (t-test for independent variables) were determined using […] v. 6.1 software (StatSoft Inc., Tulsa, OK, USA).

[6] = test system: F. verticillioides VKM F-670; type: cell-based, Fusarium verticillioides
Protocol: as §1, §2, §3

[7] = test system: Cryptococcus neoformans VKM Y-2755; type: cell-based
Protocol: as §1, §2, §3

[8] = test system: Cr. neoformans cells; assay: Propidium iodide penetration, flow cytometry; type: cell-based, Cryptococcus neoformans; details: 28 °C, 2 h; for Penetration of propidium iodide (PI) into Cr. neoformans cells: peptide 300 µM in water, PI 2 µg/mL, FL2 (488/585 nm); for Number of Cr. neoformans cells in flow cytometry: peptide 300 µM
Protocol: as §4
For flow cytometry experiments with Cr. neoformans, the yeasts were grown on the YPD medium at 28 °C for 48 h. After that, the cells were centrifuged at 12,000× g for 3 min, washed with MiliQ water and incubated with the peptides dissolved in water at a concentration of 300 µM at 28 °C for 2 h. The cells were stained with propidium iodide by direct addition of the dye to the incubation medium (final concentration of 2 µg/mL) and measured on a NovoCyte Flow cytometer (Agilent, Santa Clara, CA, USA) using the channel FL2 (488 nm excitation and 585 nm emission). The sample without peptides was used as a control.

[9] = inhibition curves (Figure 4), highest tested concentration (300 µM)

CC[C@H](C)[C@H](NC(=O)[C@H](CCCCN)NC(=O)[C@H](CS)NC(=O)[C@H](Cc1ccc(O)cc1)NC(=O)CN)C(=O)N[C@@H](CO)C(=O)N[C@@H](CCCNC(=N)N)C(=O)N[C@@H](CS)C(=O)N[C@H](C(=O)N[C@@H](CS)C(=O)N[C@@H](CCC(N)=O)C(=O)N[C@@H](CCCNC(=N)N)C(=O)N[C@@H](CCC(=O)O)C(=O)N[C@@H](CS)C(=O)O)[C@@H](C)O [DEFL1-11_55-68] (H-GYCKISRCTCQREC-OH; N-terminus and C-terminus assumed)
Pathogen inhibition, % (Ps. savastanoi) [1]: failed to suppress

C[C@@H](O)[C@H](NC(=O)[C@H](CS)NC(=O)[C@H](Cc1ccccc1)NC(=O)[C@H](CS)NC(=O)[C@H](CCCNC(=N)N)NC(=O)[C@H](CCCNC(=N)N)NC(=O)[C@H](CCCNC(=N)N)NC(=O)[C@H](Cc1ccccc1)NC(=O)CNC(=O)[C@H](CCCNC(=N)N)NC(=O)[C@H](CS)NC(=O)[C@H](CCCCN)NC(=O)CN)C(=O)N[C@H](C(=O)N[C@@H](Cc1c[nH]cn1)C(=O)N[C@@H](CS)C(=O)N[C@@H](Cc1c[nH]cn1)C(=O)N[C@@H](Cc1c[nH]cn1)C(=O)O)[C@@H](C)O [DEFL1-16_65-82] (H-GKCRGFRRRCFCTTHCHH-OH; N-terminus and C-terminus assumed)
Membrane permeabilization of Cr. neoformans cells (PI staining) [2]: induced membrane permeabilization
Membrane permeabilization of C. albicans cells (PI staining) [3]: induced membrane permeabilization

C[C@@H](O)[C@H](NC(=O)[C@H](CS)NC(=O)[C@H](CCCNC(=N)N)NC(=O)[C@H](CCCNC(=N)N)NC(=O)[C@H](Cc1ccccc1)NC(=O)[C@H](CCCCN)NC(=O)[C@H](CS)NC(=O)[C@H](Cc1ccc(O)cc1)NC(=O)CN)C(=O)N[C@@H](CS)C(=O)N[C@@H](CCC(N)=O)C(=O)N[C@@H](CCCNC(=N)N)C(=O)N[C@@H](CCC(=O)O)C(=O)N[C@@H](CS)C(=O)O [DEFL1-32_55-68] (H-GYCKFRRCTCQREC-OH; N-terminus and C-terminus assumed)
Inhibition of C. albicans at the highest tested concentration [4]: 92%
Membrane permeabilization of Cr. neoformans cells (PI staining) [2]: induced membrane permeabilization
Membrane permeabilization of C. albicans cells (PI staining) [3]: induced membrane permeabilization

CC(C)C[C@H](NC(=O)[C@H](CCCNC(=N)N)NC(=O)[C@H](Cc1c[nH]cn1)NC(=O)[C@H](CO)NC(=O)[C@H](CC(N)=O)NC(=O)[C@H](CS)NC(=O)[C@H](CCC(=O)O)NC(=O)CN)C(=O)N[C@@H](CCC(=O)O)C(=O)N[C@@H](CCCNC(=N)N)C(=O)N[C@@H](CCCCN)C(=O)N[C@@H](CS)C(=O)N[C@@H](Cc1ccccc1)C(=O)N[C@@H](CS)C(=O)N[C@@H](CCCCN)C(=O)N[C@@H](CCCNC(=N)N)C(=O)N[C@H](C(=O)N[C@@H](CS)C(=O)O)[C@@H](C)O [DEFL1-40_65-82] (H-GECNSHRLERKCFCKRTC-OH)
Pathogen inhibition, % (C. albicans) ([4]; 300 µM peptide, YPD-P medium, 30 °C, 24 h, absorbance 594 nm, vs control without peptide, triplicate, mean): failed to suppress

C[C@H](NC(=O)[C@@H](N)CS)C(=O)NCC(=O)N[C@@H](CCCNC(=N)N)C(=O)NCC(=O)N[C@@H](CCC(N)=O)C(=O)N1CCC[C@H]1C(=O)N[C@@H](Cc1ccc(O)cc1)C(=O)N[C@H](C(=O)NCC(=O)N[C@@H](CO)C(=O)NCC(=O)N[C@@H](CS)C(=O)O)[C@@H](C)O [DEFL4-8_82-94] (H-CAGRGQPYTGSGC-OH; N-terminus and C-terminus assumed)
Pathogen inhibition, % (P. carotovorum) ([5]; 300 µM peptide, modified YPD-P medium, vs control without peptide, triplicate, mean): 42%
IC50 ([5]; read-out: IC50, μM P. carotovorum, peptide 10–300 µM, from activity vs concentration graph, mean ± SD): > 100 µM
Maximum inhibition of F. verticillioides at the highest tested concentration [6, 9]: 26%
IC50 ([6]; peptide 10–300 µM, 38 h, absorbance 595 nm, from activity vs concentration graph, mean ± SD): > 100 µM

CC(C)[C@H](NC(=O)[C@H](CS)NC(=O)[C@H](CCCNC(=N)N)NC(=O)CNC(=O)CNC(=O)[C@H](CS)NC(=O)[C@H](CS)NC(=O)[C@@H]1CCCN1C(=O)[C@H](Cc1ccccc1)NC(=O)[C@@H](NC(=O)[C@@H](NC(=O)[C@H](CCCNC(=N)N)NC(=O)[C@H](CS)NC(=O)[C@@H](N)CCCCN)[C@@H](C)O)[C@@H](C)O)C(=O)O [Tk-AMP-K2_10-23] (H-KCRTTFPCCGGRCV-OH; N-terminus and C-terminus assumed)
Inhibition of Cr. neoformans at the highest tested concentration [7, 9]: complete inhibition
Membrane permeabilization of Cr. neoformans cells (PI staining) [2]: induced membrane permeabilization
Membrane permeabilization of C. albicans cells (PI staining) [3]: induced membrane permeabilization
Penetration of propidium iodide (PI) into Cr. neoformans cells [8]: 66.86%
Number of Cr. neoformans cells in flow cytometry [8]: reduction in the number of Cr. neoformans cells

CSCC[C@H](NC(=O)[C@H](CS)NC(=O)[C@H](C)NC(=O)CNC(=O)[C@H](CCCNC(=N)N)NC(=O)[C@H](CCCCN)NC(=O)[C@H](C)NC(=O)[C@H](CCCNC(=N)N)NC(=O)[C@H](CO)NC(=O)[C@H](CCCNC(=N)N)NC(=O)[C@H](C)NC(=O)[C@H](CS)NC(=O)[C@H](CCCNC(=N)N)NC(=O)[C@@H](NC(=O)[C@H](C)NC(=O)[C@H](CS)NC(=O)[C@H](CCCCN)NC(=O)CN)C(C)C)C(=O)N[C@@H](CCCCN)C(=O)O [TkSN1_39-57] (H-GKCAVRCARSRAKRGACMK-OH; N-terminus and C-terminus assumed)
Inhibition of C. albicans at the highest tested concentration [4]: complete inhibition
Membrane permeabilization of Cr. neoformans cells (PI staining) [2]: induced membrane permeabilization
Membrane permeabilization of C. albicans cells (PI staining) [3]: induced membrane permeabilization

AGHGKRYTGRG [HvDEFL4-1_67-77]
Membrane permeabilization of Cr. neoformans cells (PI staining) [2]: induced membrane permeabilization
Membrane permeabilization of C. albicans cells (PI staining) [3]: induced membrane permeabilization
Penetration of propidium iodide (PI) into Cr. neoformans cells [8]: 37.84%
Number of Cr. neoformans cells in flow cytometry [8]: reduction in the number of Cr. neoformans cells

PARGRPYTGRA [DEFL4-37_91-101]
Activity against Cr. neoformans relative to DEFL4-37_90-102 ([7]; 300 µM (Figure 3), times less active): 10 times
